Results as given in article PMC9291687.
Where “and” joins values, the source holds several entries; their conditions need not be identical. Equal values may be shown once. Entries after “also recorded” stand apart in the source; their conditions may differ.

How the values were obtained:
lung cancer (A-549) = test: MTT antiproliferative assay, A-549; conditions: Homo sapiens
Method: (§1) Preliminary screening against the cancer cell lines was performed, using doxorubicin as a reference drug at doses of 100 μM.
(§2) In vitro cytotoxicity was carried out using MTT assay protocol[63] as described in Supplementary data.
(§3) proliferative activity was assessed quantitatively as follows;
(§4) Human cancer cell lines were dropped in 96-well plates at a density of 3-8 × 10^3 cells/well.
(§5) growth medium was exchanged with 0.1 ml of fresh medium containing graded concentrations of the test compounds to be or equal DMSO and incubated for two days. Then 10 μl MTT solution (0.5 mg/ml) was added to each well, and the cells were incubated for additional 4 h. The crystals of MTT-formazan were dissolved in 100 μl of DMSO; the absorbance of each well was measured at 490 nm using an automatic ELISA reader system (TECAN, CHE). The IC50 values were calculated using the nonlinear regression fitting models (Graph Pad, Prism Version 5). The data represented the mean of three independent experiments in triplicate and were expressed as means
(§6) The results were expressed as growth inhibitory concentration (IC50) values and

EGFR^WT = EGFR^WT (Homo sapiens, UniProt P00533); test: EGFRWT kinase inhibitory assay (HTRF)
Method: (§7) In vitro EGFR inhibitory activity was assessed using Homogeneous time-resolved fluorescence (HTRF) assay[64] as described in Supplementary data.
(§8) The IC50 values were calculated using the nonlinear regression fitting models (Graph Pad, Prism Version 5).
(§9) EGFRWT and EGFRT790M kinase inhibitory assay
(§10) Homogeneous time resolved fluorescence (HTRF) assay was applied in this test.
(§11) EGFRWT, EGFRT790M (Sigma). firstly, the EGFRWT and/or EGFRT790M and their substrates were incubated with the tested compounds in enzymatic buffer for 5 min.
(§12) into the reaction mixture to allow starting the enzymatic reaction. The assay was conducted for 30 min at room temperature. The reaction was stopped by addition of detection reagents which contain
(§13) GraphPad Prism 5.0. Three independent experiments were performed for each concentration.

breast cancer (MCF-7) = test: MTT antiproliferative assay, MCF-7; conditions: Homo sapiens, MCF7, read-out: Growth inhibition (%) MCF-7
Method: as §1, §2, §3, §4, §5, §6

caspase-3 in PC-3 cells = test: Caspase-3 determination (ELISA); assay type: cell-based, human
colon cancer (HCT-116) = test: MTT antiproliferative assay, HCT-116
Method: as §1, §2, §3, §4, §5, §6

PC-3 cells [1] = test: Annexin V-FITC/PI apoptosis assay; assay type: cell-based, human; conditions: PC-3, 7.98 µM, 24 h
Method: The results were depicted in (Figure 6 and Supplementary data).
The effect of compound 8a on cell apoptosis was investigated as described in Supplementary data[76–78].
4.1.3. Annexin V-FITC apoptosis assay.
To detect the apoptosis induced by compound 8a, PC-3 cells were seeded and incubated overnight […]
the negative control. After that, the cells were collected and washed with PBS two successive times. The cells were exposed to centrifugation. Apoptosis detection kit (BD Biosciences, San Jose, CA) was used in this test. According to the manufacturer's protocol the cells were stained by Annexin V-FITC and propidium iodide (PI) in the binding buffer for 20min at room temperature in the dark. Using a flow cytometer, Annexin V-FITC and PI binding were analyzed. flowjo software was used to analyze the frequencies in all quadrants.
Cell cycle distribution (%)

EGFR^T790M = EGFR^T790M (Homo sapiens, UniProt P00533, T790M); test: EGFRT790M kinase inhibitory assay (HTRF)
Method: as §7, §8, §9, §10, §11, §12, §13

PC-3 cells [2] = test: Cell cycle analysis by flow cytometry (PI staining); assay type: cell-based, human
prostate cancer (PC-3) = test: MTT antiproliferative assay, PC-3; conditions: Homo sapiens
Method: as §1, §2, §3, §4, §5, §6

EGFR^T790M, sequence (P00533 25-1210 T790M): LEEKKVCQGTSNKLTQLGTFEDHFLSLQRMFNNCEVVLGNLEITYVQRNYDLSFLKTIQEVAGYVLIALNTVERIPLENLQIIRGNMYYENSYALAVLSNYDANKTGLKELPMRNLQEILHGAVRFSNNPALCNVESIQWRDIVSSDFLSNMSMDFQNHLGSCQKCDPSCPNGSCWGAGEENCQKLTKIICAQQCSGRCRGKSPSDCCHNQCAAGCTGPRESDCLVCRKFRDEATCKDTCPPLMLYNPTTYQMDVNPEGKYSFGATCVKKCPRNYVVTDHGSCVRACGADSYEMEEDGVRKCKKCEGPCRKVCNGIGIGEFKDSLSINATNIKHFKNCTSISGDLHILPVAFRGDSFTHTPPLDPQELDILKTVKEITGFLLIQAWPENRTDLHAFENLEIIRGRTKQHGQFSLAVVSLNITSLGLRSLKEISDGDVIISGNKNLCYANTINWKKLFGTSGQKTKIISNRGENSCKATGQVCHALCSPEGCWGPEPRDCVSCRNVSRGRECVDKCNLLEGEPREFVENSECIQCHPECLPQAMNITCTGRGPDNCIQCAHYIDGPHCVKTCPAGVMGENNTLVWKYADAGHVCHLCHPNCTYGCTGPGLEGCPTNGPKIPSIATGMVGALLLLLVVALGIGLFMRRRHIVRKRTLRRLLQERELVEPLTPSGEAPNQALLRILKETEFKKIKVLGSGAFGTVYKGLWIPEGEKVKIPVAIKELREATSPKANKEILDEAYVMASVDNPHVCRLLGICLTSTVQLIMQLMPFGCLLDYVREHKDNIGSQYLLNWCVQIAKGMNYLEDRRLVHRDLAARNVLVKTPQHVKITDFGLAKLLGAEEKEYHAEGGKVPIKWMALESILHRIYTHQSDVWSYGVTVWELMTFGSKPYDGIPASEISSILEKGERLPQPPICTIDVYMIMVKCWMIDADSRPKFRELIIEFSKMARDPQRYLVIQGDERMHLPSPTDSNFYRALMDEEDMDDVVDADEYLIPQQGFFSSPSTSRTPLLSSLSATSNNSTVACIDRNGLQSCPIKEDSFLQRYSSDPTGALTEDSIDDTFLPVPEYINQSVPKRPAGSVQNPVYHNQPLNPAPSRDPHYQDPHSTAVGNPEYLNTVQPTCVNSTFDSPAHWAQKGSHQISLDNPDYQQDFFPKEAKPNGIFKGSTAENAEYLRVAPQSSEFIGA
EGFR^WT, sequence (P00533 25-1210): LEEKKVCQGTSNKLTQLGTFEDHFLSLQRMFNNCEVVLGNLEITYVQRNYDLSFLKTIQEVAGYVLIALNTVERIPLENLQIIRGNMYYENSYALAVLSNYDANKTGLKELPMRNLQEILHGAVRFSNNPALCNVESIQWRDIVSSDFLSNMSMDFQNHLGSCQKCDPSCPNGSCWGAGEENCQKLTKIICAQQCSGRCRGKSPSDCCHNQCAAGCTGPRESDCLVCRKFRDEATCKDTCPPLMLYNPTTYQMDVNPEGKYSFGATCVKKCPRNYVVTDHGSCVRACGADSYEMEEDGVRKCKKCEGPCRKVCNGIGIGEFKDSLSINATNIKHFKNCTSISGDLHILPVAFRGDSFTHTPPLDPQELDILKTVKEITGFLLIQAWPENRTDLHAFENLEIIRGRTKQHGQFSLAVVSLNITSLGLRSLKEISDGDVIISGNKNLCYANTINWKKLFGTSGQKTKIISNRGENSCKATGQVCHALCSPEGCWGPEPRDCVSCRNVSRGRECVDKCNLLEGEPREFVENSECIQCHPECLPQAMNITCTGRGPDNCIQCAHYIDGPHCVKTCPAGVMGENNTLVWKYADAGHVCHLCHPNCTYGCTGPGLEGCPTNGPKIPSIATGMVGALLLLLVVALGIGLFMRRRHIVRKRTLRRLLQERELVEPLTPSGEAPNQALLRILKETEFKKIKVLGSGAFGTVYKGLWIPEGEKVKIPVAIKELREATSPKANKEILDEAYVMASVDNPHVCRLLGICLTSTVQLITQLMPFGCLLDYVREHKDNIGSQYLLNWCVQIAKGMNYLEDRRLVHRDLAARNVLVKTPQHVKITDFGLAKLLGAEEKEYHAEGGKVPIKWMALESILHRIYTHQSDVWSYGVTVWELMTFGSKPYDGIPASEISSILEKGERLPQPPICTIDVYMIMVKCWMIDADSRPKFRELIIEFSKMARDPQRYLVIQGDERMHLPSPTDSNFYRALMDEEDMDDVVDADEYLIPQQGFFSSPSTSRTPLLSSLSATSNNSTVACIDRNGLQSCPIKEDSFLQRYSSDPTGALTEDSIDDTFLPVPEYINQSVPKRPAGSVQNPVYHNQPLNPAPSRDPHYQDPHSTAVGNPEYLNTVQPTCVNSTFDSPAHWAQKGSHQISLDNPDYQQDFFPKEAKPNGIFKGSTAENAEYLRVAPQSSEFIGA

**Q.** What does the source list for `Cc1ccc(-c2cc(-c3ccc(Cl)cc3)nc3nc4[nH]c5ccccc5c(=O)n4c(=O)c23)cc1` [Compound 8a, 2–(4-Chlorophenyl)-4-(p-tolyl)-5H-pyrido[2',3':4,5]pyrimido [2,1-b] quinazoline-5,7(12H)-dione]?
**A.** inhibition at 100 µM (lung cancer (A-549); A549, read-out: Growth inhibition (%) A549): 90%; IC50 (lung cancer (A-549); A549, read-out: IC50 A-549, MTT, mean of at least three experiments): 16.2 ± 2.4 µM; IC50 (EGFR^WT): 0.099 ± 0.007 µM; inhibition at 100 µM (breast cancer (MCF-7)): 32%; Increase in caspase-3 level vs control cells (caspase-3 in PC-3 cells; 24 h): 5.3 fold; Caspase-3 level (caspase-3 in PC-3 cells; 24 h treatment, 8a at 3.04 µM, control 84.24, mean ± SEM): 452.3 pg/mL and 452.3 ± 10.5 pg/mL; inhibition at 100 µM (colon cancer (HCT-116); Homo sapiens, HCT-116, read-out: Growth inhibition (%) HCT-116): 84%; IC50 (colon cancer (HCT-116); Homo sapiens, HCT-116, read-out: IC50 HCT-116): 25.6 ± 1.3 µM; Cytotoxic activity against HCT-116 (colon cancer (HCT-116); MTT): mild cytotoxic activity; Increase in early apoptosis ratio vs control (PC-3 cells [1]): 32 fold; Increase in late apoptosis ratio vs control (PC-3 cells [1]): 150 fold; Late apoptosis (PC-3 cells [1]; control 0.15%): 22.49%; Early apoptosis (PC-3 cells [1]; control 0.43%): 13.92%; Necrosis (PC-3 cells [1]; control 1.20): 4.65%; Total apoptosis (PC-3 cells [1]; control 1.78): 41.06%; IC50 (EGFR^T790M): 0.123 ± 0.01 µM; Increase of cell population at %S vs control (PC-3 cells [2]; PC-3, 7.98 µM, 24 h): 1.3 folds; Increase of cell population at pre-G1 vs control (PC-3 cells [2]; PC-3, 7.98 µM, 24 h): 22 folds; Cell cycle distribution %Pre-G1 (PC-3 cells [2]; PC-3, 7.98 µM, 24 h, control 1.78%): 41.06%; Cell cycle distribution %G2-M (PC-3 cells [2]; PC-3, 7.98 µM, 24 h, control 9.75%): 4.93%; Cell cycle distribution %S (PC-3 cells [2]; PC-3, 7.98 µM, 24 h, control 41.03%): 53.69%; Cell cycle distribution %G0-G1 (PC-3 cells [2]; PC-3, 7.98 µM, 24 h, control 49.22%): 41.38%; Cell cycle arrest phase (PC-3 cells [2]; PC-3 cells): arrested the cell cycle at pre-G1 phase; also recorded: arrest the PC-3 cell line at pre-G1; also recorded: arrested the cell cycle at the pre-G1 phase; inhibition at 100 µM (prostate cancer (PC-3); read-out: Growth inhibition (%) PC-3): 98%; IC50 (prostate cancer (PC-3); read-out: IC50 PC-3): 7.98 ± 2.4 µM
